Measured values reported in patent US12441718B2, “Selective angiotensin II compounds” (VICORE PHARMA AB, priority 2021, dated 2025).
Like-named read-outs stand apart in the source and are kept apart here.

Legend:
CYP1A2 = biological target: T1, CYP1A2 (Homo sapiens, UniProt P05177); experiment: in vitro; format: in vitro ADME; conditions: human, microsomes, human liver microsomes, substrate phenacetin, read-out: CYP1A2 Inh %
T1 construct: isoform-specific substrates incubated with human liver microsomes; tissue Eurofins ITEMG232 (protocol number); host or cells: human liver microsomes
T1 sequence (P05177 whole entry, canonical isoform): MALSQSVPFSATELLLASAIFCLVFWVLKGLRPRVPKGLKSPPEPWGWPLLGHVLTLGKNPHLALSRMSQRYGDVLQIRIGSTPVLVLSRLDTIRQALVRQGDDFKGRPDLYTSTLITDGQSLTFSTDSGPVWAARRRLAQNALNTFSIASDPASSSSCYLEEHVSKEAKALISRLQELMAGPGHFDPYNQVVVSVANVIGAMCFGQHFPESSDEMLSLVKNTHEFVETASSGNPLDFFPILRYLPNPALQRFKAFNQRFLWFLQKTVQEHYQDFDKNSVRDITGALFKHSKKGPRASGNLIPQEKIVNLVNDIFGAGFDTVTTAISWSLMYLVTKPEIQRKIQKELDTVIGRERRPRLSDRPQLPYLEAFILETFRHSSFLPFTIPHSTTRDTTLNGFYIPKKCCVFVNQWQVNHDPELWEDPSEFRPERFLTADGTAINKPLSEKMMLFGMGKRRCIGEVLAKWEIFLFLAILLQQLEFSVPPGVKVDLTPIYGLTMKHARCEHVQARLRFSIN
Procedure: The following substrates were used; CYP1A phenacetin, CYP2B36 bupropion, CYP2C8 paclitaxel and amodiaquine, CYP2C9 diclofenac, CYP2C19 omeprazole, CYP2D6 dextromethorphan, CYP3A midazolam and testosterone.
At the end of the incubation, the formation of metabolite was monitored by HPLC-MS/MS as the peak area response.

CYP2D6 = biological target: T2, CYP2D6 (Homo sapiens, UniProt P10635); experiment: CYP inhibition in human liver microsomes (Eurofins ITEMG232); format: in vitro ADME; conditions: probe dextromethorphan, substrate dextromethorphan, read-out: CYP2D6 Inh %
T2 construct: isoform-specific substrates incubated with human liver microsomes; tissue Eurofins ITEMG232 (protocol number); host or cells: human liver microsomes
T2 sequence (P10635 whole entry, canonical isoform): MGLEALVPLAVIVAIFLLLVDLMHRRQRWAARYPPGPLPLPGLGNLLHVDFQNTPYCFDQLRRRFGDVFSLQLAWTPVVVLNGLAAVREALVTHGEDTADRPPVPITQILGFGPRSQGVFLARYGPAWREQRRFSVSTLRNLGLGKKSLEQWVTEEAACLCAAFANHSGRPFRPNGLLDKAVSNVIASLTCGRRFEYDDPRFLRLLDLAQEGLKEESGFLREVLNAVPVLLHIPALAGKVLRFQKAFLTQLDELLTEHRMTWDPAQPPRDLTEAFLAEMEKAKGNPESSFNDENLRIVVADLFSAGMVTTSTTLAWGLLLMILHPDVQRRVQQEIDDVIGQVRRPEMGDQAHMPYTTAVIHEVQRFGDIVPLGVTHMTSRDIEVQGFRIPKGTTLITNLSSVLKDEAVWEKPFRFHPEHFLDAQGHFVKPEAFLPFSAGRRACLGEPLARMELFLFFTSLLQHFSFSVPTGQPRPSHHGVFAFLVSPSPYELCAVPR

CYP2C8 = biological target: T3, CYP2C8 (Homo sapiens, UniProt P10632); experiment: as above; format: in vitro ADME; conditions: human, probe paclitaxel and amodiaquine, substrate paclitaxel and amodiaquine, read-out: CYP2C8 Inh %
T3 construct: isoform-specific substrates incubated with human liver microsomes; tissue Eurofins ITEMG232 (protocol number); host or cells: human liver microsomes
T3 sequence (P10632 1-490): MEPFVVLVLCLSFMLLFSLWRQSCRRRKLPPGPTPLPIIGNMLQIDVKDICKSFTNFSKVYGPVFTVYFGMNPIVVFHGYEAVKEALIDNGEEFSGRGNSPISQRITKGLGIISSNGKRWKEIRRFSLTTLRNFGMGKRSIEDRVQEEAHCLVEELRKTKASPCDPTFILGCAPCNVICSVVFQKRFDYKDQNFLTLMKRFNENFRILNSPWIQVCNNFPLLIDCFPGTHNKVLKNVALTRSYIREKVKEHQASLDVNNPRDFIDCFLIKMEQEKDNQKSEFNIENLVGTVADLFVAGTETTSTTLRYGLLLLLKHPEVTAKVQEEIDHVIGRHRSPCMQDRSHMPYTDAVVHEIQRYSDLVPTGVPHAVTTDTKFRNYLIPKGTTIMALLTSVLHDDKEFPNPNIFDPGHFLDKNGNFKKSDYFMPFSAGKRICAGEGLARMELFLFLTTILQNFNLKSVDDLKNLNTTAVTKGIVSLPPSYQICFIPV

[1] = Metabolic stability in pooled human liver microsomes; format: in vitro ADME; conditions: human, pooled human liver microsomes, pooled human liver microsomes 0.5 mg/mL, 1 μM test compound, 37° C., * rows = mean of two runs
Procedure: Pooled human liver microsomes in PBS at a concentration of 0.5 mg/mL was incubated with or without 1 mM NADPH for 70 min at 37° C. Test compound was added after 10 minutes to a final concentration of 1 μM. Samples were withdrawn at 0, 5, 15 and 60 minutes and added to test tubes containing acetonitrile, to stop the reaction, and with terfenadine, used as internal standard. After centrifugation at 10 000×g for 5 minutes the supernatant was diluted 1:1 with 1% formic acid. Samples were separated on a reverse phase column and detected by triple quadrupole MSMS (Agilant model 6540). The concentration of the parent compound at the different time points was measured with an external standard curve using terfenadine as internal standard and the initial metabolic rate in the presence or absence of NADPH calculated.

CYP2C19 = biological target: T4, CYP2C19 (Homo sapiens, UniProt P33261); experiment: CYP inhibition in human liver microsomes (Eurofins ITEMG232); format: in vitro ADME; conditions: human, probe omeprazole, substrate omeprazole, read-out: CYP2C19 Inh %
T4 construct: isoform-specific substrates incubated with human liver microsomes; tissue Eurofins ITEMG232 (protocol number); host or cells: human liver microsomes
T4 sequence (P33261 whole entry, canonical isoform): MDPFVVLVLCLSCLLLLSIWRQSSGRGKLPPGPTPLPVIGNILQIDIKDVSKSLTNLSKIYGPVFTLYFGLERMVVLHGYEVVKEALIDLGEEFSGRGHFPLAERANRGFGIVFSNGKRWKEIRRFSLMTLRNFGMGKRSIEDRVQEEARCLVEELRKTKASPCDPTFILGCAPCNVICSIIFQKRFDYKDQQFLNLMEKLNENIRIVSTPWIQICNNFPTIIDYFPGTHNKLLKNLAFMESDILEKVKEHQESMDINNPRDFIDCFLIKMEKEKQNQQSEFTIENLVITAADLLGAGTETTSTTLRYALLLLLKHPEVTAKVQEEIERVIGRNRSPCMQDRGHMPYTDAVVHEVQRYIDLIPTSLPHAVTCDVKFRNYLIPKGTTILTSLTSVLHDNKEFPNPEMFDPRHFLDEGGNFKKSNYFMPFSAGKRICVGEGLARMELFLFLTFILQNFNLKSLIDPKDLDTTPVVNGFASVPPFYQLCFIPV

[2] = biological target: T5, human recombinant AT2 receptor (Homo sapiens, UniProt P50052); experiment: Binding to AT2 receptor, radiometric scintillation assay (Eurofins ITEM26); conditions: ligand 125I CGP 42112A, * rows = mean of runs; for Ki: seven-point dose-response curve; for IC50: test compounds at 1, 10, 100 and 1000 nM, read-out: AT2 GraFit IC50
T5 construct: purchased Eurofins ITEM26 (protocol number)
T5 sequence (P50052 1-363): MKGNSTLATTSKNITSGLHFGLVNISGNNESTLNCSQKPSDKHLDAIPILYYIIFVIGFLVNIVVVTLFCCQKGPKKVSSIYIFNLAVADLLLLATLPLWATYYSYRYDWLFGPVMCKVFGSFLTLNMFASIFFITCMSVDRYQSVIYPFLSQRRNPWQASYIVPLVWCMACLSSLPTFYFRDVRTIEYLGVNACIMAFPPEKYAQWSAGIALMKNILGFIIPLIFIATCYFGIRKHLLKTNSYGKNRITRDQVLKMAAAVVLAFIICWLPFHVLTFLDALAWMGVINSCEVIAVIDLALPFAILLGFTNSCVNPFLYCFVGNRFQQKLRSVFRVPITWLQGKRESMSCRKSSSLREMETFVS

CYP2C9 = CYP2C9 (Homo sapiens, UniProt P11712); experiment: CYP inhibition in human liver microsomes (Eurofins ITEMG232); format: in vitro ADME; design: isoform-specific substrates incubated with human liver microsomes; tissue Eurofins ITEMG232 (protocol number); host or cells: human liver microsomes; conditions: human, probe diclofenac, substrate diclofenac, read-out: CYP2C9 Inh %
CYP2C9, sequence (P11712 whole entry, canonical isoform): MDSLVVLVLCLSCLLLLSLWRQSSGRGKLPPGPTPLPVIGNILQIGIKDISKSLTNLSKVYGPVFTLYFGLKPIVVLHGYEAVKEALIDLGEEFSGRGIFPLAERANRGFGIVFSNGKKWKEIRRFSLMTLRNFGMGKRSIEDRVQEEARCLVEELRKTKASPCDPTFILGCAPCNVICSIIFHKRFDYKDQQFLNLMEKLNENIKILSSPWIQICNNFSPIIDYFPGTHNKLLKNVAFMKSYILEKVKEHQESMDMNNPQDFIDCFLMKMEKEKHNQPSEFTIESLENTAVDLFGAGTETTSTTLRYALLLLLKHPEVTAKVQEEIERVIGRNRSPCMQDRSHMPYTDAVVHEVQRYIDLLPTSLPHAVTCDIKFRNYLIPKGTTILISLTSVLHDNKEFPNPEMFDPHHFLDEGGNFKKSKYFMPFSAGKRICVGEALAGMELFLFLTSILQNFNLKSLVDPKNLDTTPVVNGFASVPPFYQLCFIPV

CYP3A4&5 = experiment: in vitro; conditions: human, human liver microsomes, probe testosterone;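 further: Read-out is the metabolite generated from the probe substrate, quantified as HPLC-MS/MS peak area once incubation ends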
CYP3A4 = CYP3A4 (Homo sapiens, UniProt P08684); experiment: CYP inhibition in human liver microsomes (Eurofins ITEMG232), midazolam substrate; format: in vitro ADME; design: isoform-specific substrates incubated with human liver microsomes; tissue Eurofins ITEMG232 (protocol number); host or cells: human liver microsomes; conditions: human, probe midazolam, read-out: CYP3A4 midazolam Inh %
CYP3A4, sequence (P08684 whole entry, canonical isoform): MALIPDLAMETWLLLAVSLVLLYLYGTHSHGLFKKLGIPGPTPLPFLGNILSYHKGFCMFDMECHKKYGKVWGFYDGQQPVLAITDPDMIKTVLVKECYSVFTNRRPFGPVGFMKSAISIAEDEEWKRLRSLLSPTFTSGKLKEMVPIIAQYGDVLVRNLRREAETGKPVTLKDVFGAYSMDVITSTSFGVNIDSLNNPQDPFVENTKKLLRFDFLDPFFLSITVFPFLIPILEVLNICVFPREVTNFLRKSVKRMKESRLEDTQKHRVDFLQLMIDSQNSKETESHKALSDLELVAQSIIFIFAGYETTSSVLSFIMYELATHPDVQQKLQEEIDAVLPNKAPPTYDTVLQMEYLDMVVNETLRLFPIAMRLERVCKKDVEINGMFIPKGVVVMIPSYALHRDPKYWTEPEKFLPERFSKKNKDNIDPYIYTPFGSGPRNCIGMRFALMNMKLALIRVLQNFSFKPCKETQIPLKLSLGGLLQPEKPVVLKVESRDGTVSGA

CYP2B6 = biological target: T6, CYP2B6 (Homo sapiens, UniProt P20813); experiment: CYP inhibition in human liver microsomes (Eurofins ITEMG232); format: in vitro ADME; conditions: probe bupropion, substrate bupropion, read-out: CYP2B6 Inh %
T6 construct: isoform-specific substrates incubated with human liver microsomes; tissue Eurofins ITEMG232 (protocol number); host or cells: human liver microsomes
T6 sequence (P20813 1-491): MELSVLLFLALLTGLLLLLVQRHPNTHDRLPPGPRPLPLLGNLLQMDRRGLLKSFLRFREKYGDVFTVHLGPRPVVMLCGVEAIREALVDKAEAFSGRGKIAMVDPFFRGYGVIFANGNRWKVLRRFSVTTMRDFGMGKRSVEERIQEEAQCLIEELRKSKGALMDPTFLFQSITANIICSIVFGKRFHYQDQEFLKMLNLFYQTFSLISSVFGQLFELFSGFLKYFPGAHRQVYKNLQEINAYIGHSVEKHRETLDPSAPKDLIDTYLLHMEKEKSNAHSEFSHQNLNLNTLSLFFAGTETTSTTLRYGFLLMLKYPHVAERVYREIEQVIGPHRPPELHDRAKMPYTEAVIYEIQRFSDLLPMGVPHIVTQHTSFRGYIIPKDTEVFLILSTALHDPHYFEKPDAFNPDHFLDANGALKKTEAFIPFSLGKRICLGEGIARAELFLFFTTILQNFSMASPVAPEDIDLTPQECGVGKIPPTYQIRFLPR

[3] = with 1 mM NADPH, read-out: T1/2, + NaDPH
[4] = without NADPH, read-out: T1/2, no NaDPH

inhibition at 10 µM (CYP1A2) [%] | inhibition at 10 µM (CYP2D6) [%] | inhibition at 10 µM (CYP2C8) [%] | half-life at 1 μM [1, 3] [h] | half-life at 1 μM [1, 4] [h] | inhibition at 10 µM (CYP2C19) [%] | Ki [2] [nM] | IC50 [2] [nM] | inhibition at 10 µM (CYP2C9) [%] | inhibition at 10 µM (CYP3A4&5) [%] | inhibition at 10 µM (CYP3A4) [%] | inhibition at 10 µM (CYP2B6) [%] | SMILES
30 | 24.6 | 74.3 | 0.333 | > 1 | 58.4 | 2.6 | 5.2 | 55.5 | 24.8 | 10.3 | 25.9 | COc1ccc(NS(=O)(=O)c2ccc(CC(C)C)cc2-c2ccc(Cn3ccnc3C(C)(C)C)cc2)nn1 [Example 14, 4′-((2-(tert-Butyl)-1H-imidazol-1-yl)methyl)-5-isobutyl-N-(6-methoxypyridazin-3-yl)-[1,1′-biphenyl]-2-sulfonamide]
43 | 32.6 | 88.3 | 0.567 | > 1 | 71.2 | 2.92 | 5.85 | 86.6 | 42.6 | 0.4 | 55 | CC(C)Cc1ccc(S(=O)(=O)Nc2nccs2)c(-c2ccc(Cn3ccnc3C(C)(C)C)c(F)c2)c1 [Example 8, 4′-((2-(tert-Butyl)-1H-imidazol-1-yl)methyl)-3′-fluoro-5-isobutyl-N-(thiazol-2-yl)-[1,1′-biphenyl]-2-sulfonamide]
-5.4 | 11.9 | 40 | 0.1 | > 1 | 65.8 | 75 | 150 | 80.7 | 57.3 | 65.1 | 19.4 | COc1ncnc(OC)c1NS(=O)(=O)c1ccc(CC(C)C)cc1-c1ccc(Cn2ccnc2C(C)(C)C)c(F)c1 [Example 25, 4′-((2-(tert-Butyl)-1H-imidazol-1-yl)methyl)-N-(4,6-dimethoxypyrimidin-5-yl)-3′-fluoro-5-isobutyl-[1,1′-biphenyl]-2-sulfonamide]
13.6 | 7.4 | 58.2 | > 1 | > 1 | 43.6 | 0.45 | 0.9 | 43 | 21.8 | 15.4 | 25 | CCc1nccn1Cc1ccc(-c2cc(CC(C)C)ccc2S(=O)(=O)Nc2ncccn2)cc1F [Example 29, 4′-((2-Ethyl-1H-imidazol-1-yl)methyl)-3′-fluoro-5-isobutyl-N-(pyrimidin-2-yl)-[1,1′-biphenyl]-2-sulfonamide]
14.3 | 20 | 89.6 | > 1 | > 1 | 47.5 | 1.54 | 3.07 | 82 | -19.3 | 16.1 | 48 | CC(C)Cc1ccc(S(=O)(=O)Nc2ncc(Br)cn2)c(-c2ccc(Cn3ccnc3C(C)(C)C)c(F)c2)c1 [Example 11, N-(5-Bromopyrimidin-2-yl)-4′-((2-(tert-butyl)-1H-imidazol-1-yl)methyl)-3′-fluoro-5-isobutyl-[1,1′-biphenyl]-2-sulfonamide]
85.4 | 14.1 | 87.8 | > 1 | > 1 | 37.2 | 2.12 | 4.2 | 60.5 | 18.2 | 41.7 | 19.5 | CC(C)Cc1ccc(S(=O)(=O)Nc2ncc(Br)cn2)c(-c2ccc(Cn3ccnc3C(C)(C)C)cc2)c1 [Example 1, N-(5-Bromopyrimidin-2-yl)-4′-((2-(tert-butyl)-1H-imidazol-1-yl)methyl)-5-isobutyl-[1,1′-biphenyl]-2-sulfonamide]
19.8 | 17.6 | 71.3 | 0.567 | > 1 | 52.1 | 22.9 | 45.8 | 50.9 | -2.8 | -48.7 | 30.4 | Cc1nc(NS(=O)(=O)c2ccc(CC(C)C)cc2-c2ccc(Cn3ccnc3C(C)(C)C)cc2)oc1C [Example 13, 4′-((2-(tert-Butyl)-1H-imidazol-1-yl)methyl)-N-(4,5-dimethyloxazol-2-yl)-5-isobutyl-[1,1′-biphenyl]-2-sulfonamide]
-6.4 | 6.8 | 59.1 | > 1 | > 1 | 60.2 | 1.35 | 2.7 | 76.8 | 26.4 | 45.8 | 37.9 | CC(C)Cc1ccc(S(=O)(=O)Nc2ncc(C(F)(F)F)cn2)c(-c2ccc(Cn3ccnc3C(C)(C)C)c(F)c2)c1 [Example 21, 4′-((2-(tert-Butyl)-1H-imidazol-1-yl)methyl)-3′-fluoro-5-isobutyl-N-(5-(trifluoromethyl)pyrimidin-2-yl)-[1,1′-biphenyl]-2-sulfonamide]
